Reference: paper PMC8724172, “The effect of potent CYP2D6 inhibition on the pharmacokinetics and safety of deutetrabenazine in healthy volunteers” (European Journal of Clinical Pharmacology, 2021)

Assays:
[1] = Open-label sequential drug-drug interaction study: plasma pharmacokinetics of deutetrabenazine and its metabolites without and with steady-state paroxetine; parameters: AUC0−t lower by a factor in presence of paroxetine / Cmax lower by a factor in presence of paroxetine: unit not given beside the values; settings: for % Ratio of LS means (90% CI) (day 11)/(day 1), AUC0−t / % Ratio of LS means (90% CI) (day 11)/(day 1), AUC0−∞ / % Ratio of LS means (90% CI) (day 11)/(day 1), Cmax: deutetrabenazine + paroxetine vs deutetrabenazine alone; for Increase of half-life (t1/2) in presence of paroxetine / Increase of AUC0–∞ in presence of paroxetine / Increase of Cmax in presence of paroxetine: deutetrabenazine 22.5 mg; for Increase of half-life (t1/2) in presence of paroxetine: steady-state paroxetine vs alone; for Cmax / AUC0–∞ / Tmax / t1/2 / AUC0-t: human; for Increase of AUC0–∞ in presence of paroxetine / Increase of Cmax in presence of paroxetine: population of 15 EM and 8 IM, steady-state paroxetine 20 mg daily vs alone
Description: This was an open-label sequential drug-drug interaction study in 24 healthy adult subjects who were CYP2D6 extensive metabolizers (EM) or CYP2D6 intermediate metabolizers (IM); Supplemental Table S1 provides the genotypes and phenotypes of the subjects.
Subjects checked into the clinic on day 1 and were confined through day 14. […] Those who met inclusion/exclusion criteria received a single dose of deutetrabenazine on day 1 followed by a 72-h washout. Subjects then received paroxetine on days 4 to 12 to achieve steady-state plasma concentrations of paroxetine by day 11. On day 11, another single dose of deutetrabenazine was administered. Triplicate 12-lead digital electrocardiograms (ECGs) were collected predose and for 10 h following deutetrabenazine dosing on day 1, and for 10 h on day 11, following paroxetine administration on day 10. Blood samples for measurement of plasma concentrations of deutetrabenazine and its metabolites were obtained on days 1 and 11 (predose, 1, 2, 2.5, 3, 3.5, 4, 4.5, 5, 6, 7, 8, 10, 12, and 16 h), days 2 and 12, at 24 and 36 h, days 3 and 13, at 48 and 60 h and days 4 and 14, at 72 h. Paroxetine trough levels were obtained pre-dose on days 9, 10, 11, and 12, and on day 13 at 24 h post the final paroxetine dose on day 12. Blood and urine samples were collected for clinical laboratory testing (hematology, serum chemistries, and urinalysis) at admission and after at least 10 h fasting and at study completion on day 14 or upon early withdrawal.
All participants received the following treatments, deutetrabenazine 22.5-mg oral dose as one 15-mg tablet + one 7.5-mg tablet on days 1 and 11 and one paroxetine 20 mg (Cadila Healthcare Ltd.) oral tablet on days 4 through 12. The deutetrabenazine 22.5-mg dose was administered with 237 mL of water in the morning approximately 30 min after a standardized breakfast meal with moderate fat content (35%). No food was allowed for at least 4 h postdose, and subjects were asked to remain upright for at least 4 h postdose, unless medically necessary.
Paroxetine 20 mg was administered in the morning with 237 mL water for 9 days (days 4 to 12) to ensure steady-state levels. On days 4 to 10 and 12, the paroxetine dose was administered in a fed state 30 min after breakfast. On day 11, as paroxetine can be administered without regard to food, subjects took the paroxetine dose under fasting conditions (at least 1 h prior to breakfast and 1.5 h prior to deutetrabenazine administration) following an overnight fast of at least 10 h. Subjects were asked to remain upright for at least 1 h after the paroxetine dose, unless medically necessary.
Validated liquid chromatography/tandem mass spectrometry methods were applied to assess plasma concentrations of paroxetine, deutetrabenazine, α- and β-HTBZ metabolites, and the O-desmethyl metabolites of α- and β-HTBZ. This was performed on a Sciex API 4000 instrument, equipped with a Turbo Ion Spray ion source operated in the positive ion mode and interfaced to a Shimadzu HPLC system fitted with a Waters XBridge C18 reverse phase column (3.5 µm; 50 × 2.1 mm) for paroxetine, deutetrabenazine, α-HTBZ and β-HTBZ or a Phenomenex Kinetex column (2.6 µm; 100 × 2.1 mm) for the O-desmethyl metabolites. The validated assay ranges were as follows: paroxetine 0.500 to 50.0 ng/mL, deutetrabenazine 0.100 to 10.0 ng/mL, deuterated α- and β-HTBZ 0.500 to 100 ng/mL, and 9-O- and 10-O-desmethyl metabolites of α-HTBZ and β-HTBZ 0.5 to 50.0 ng/mL. The methods were developed and validated by CPR Pharma Services, Pty, Ltd Australia, as described earlier.
Plasma concentrations, below the limit of quantitation (BLQ) of the assay, were designated a value of zero for initial and time points occurring at the end of the profile. For sampling time points between two quantifiable concentrations, plasma concentrations BLQ followed by a measurable concentration were set to the limit of quantitation of the assay.

[2] = cited from earlier work; for Increase in exposure with paroxetine: after tetrabenazine administration
[3] = Safety assessments (adverse events, ECG, C-SSRS) in the drug-drug interaction study
Method: Subjects checked into the clinic on day 1 and were confined through day 14. […] Subjects then received paroxetine on days 4 to 12 to achieve steady-state plasma concentrations of paroxetine by day 11. On day 11, another single dose of deutetrabenazine was administered. Triplicate 12-lead digital electrocardiograms (ECGs) were collected predose and for 10 h following deutetrabenazine dosing on day 1, and for 10 h on day 11, following paroxetine administration on day 10. […] Blood and urine samples were collected for clinical laboratory testing (hematology, serum chemistries, and urinalysis) at admission and after at least 10 h fasting and at study completion on day 14 or upon early withdrawal.

[4] = Subjects with EM phenotype (n = 15)
[5] = Subjects with IM phenotype (n = 8)
[6] = paroxetine administered with tetrabenazine
[7] = adverse events by treatment period, 24 subjects dosed

## COc1cc2c(cc1OC)[C@H]1C[C@H](O)[C@H](CC(C)C)CN1CC2 [β-HTBZ]
[1]; All subjects (n = 23)
  % Ratio of LS means (90% CI) (day 11)/(day 1), AUC0−t: 484.7 (355.2–661.5) %
  % Ratio of LS means (90% CI) (day 11)/(day 1), AUC0−∞: 520.6 (388.9–697.0) %
  % Ratio of LS means (90% CI) (day 11)/(day 1), Cmax: 154.3 (126.0–189.0) %
[1]; [4]
  % Ratio of LS means (90% CI) (day 11)/(day 1), AUC0−t: 641.3 (537.3–765.4) %
  % Ratio of LS means (90% CI) (day 11)/(day 1), AUC0−∞: 649.9 (549.6–768.5) %
  % Ratio of LS means (90% CI) (day 11)/(day 1), Cmax: 216.4 (185.0–253.2) %
[1]; [5]
  % Ratio of LS means (90% CI) (day 11)/(day 1), AUC0−t: 744.6 (605.3–915.8) %
  % Ratio of LS means (90% CI) (day 11)/(day 1), AUC0−∞: 731.5 (595.0–899.3) %
  % Ratio of LS means (90% CI) (day 11)/(day 1), Cmax: 259.2 (216.7–310.1) %
[1]
  Increase of half-life (t1/2) in presence of paroxetine: 2.7 fold
  Increase of AUC0–∞ in presence of paroxetine: 5.6 fold
  Increase of Cmax in presence of paroxetine: 2.1 fold
[1]; in vivo
  Cmax: 20.4 (33) ng/mL
[1]; in vivo, im
  AUC0–∞: 333 (75) ng × h/mL
  Cmax: 32.6 (22) ng/mL
  Tmax: 4.0 (2.0–8.0) h
  t1/2: 7.9 (50) h
[1]; in vivo, po, 22.5 mg
  Cmax: 24.6 (38) ng/mL
[2]
  Increase in exposure with paroxetine: ninefold
[2]; [6]
  Increase of AUC with paroxetine: ninefold

## [2H]C([2H])([2H])Oc1cc2c(cc1OC([2H])([2H])[2H])C1CC(=O)C(CC(C)C)CN1CC2 (stereo not drawn) [Deutetrabenazine]
[1]; deutetrabenazine 22.5 mg oral, day 11 vs day 1
  Mean plasma concentrations in the presence and absence of paroxetine: comparable
[1]; in vivo
  Cmax: 0.3 (44) ng/mL
  Tmax: 3.5 (1.0–6.0) h
[1]; in vivo, im
  AUC0-t: 1.0 (55) ng × h/mL
  Cmax: 0.5 (66) ng/mL
  Tmax: 3.5 (1.0–6.0) h
[1]; in vivo, po, 22.5 mg
  Cmax: 0.4 (60) ng/mL
[3]; [7]
  Back pain: 0 (0%) n (%)
  Chest discomfort: 0 (0%) n (%)
  Decreased appetite: 0 (0%) n (%)
  Dizziness: 1 (4%) n (%)
  Feeling abnormal: 0 (0%) n (%)
  Feeling hot: 0 (0%) n (%)
  Gastrointestinal Disorders: 0 (0%) n (%)
  General Disorders and Administration Site Conditions: 0 (0%) n (%)
  Gingival pain: 0 (0%) n (%)
  Headache: 0 (0%) n (%)
  Hypoaethesia oral: 0 (%) n (%)
  Local swelling: 0 (0%) n (%)
  Metabolism and Nutritional disorders: 0 (0%) n (%)
  Muscle tightness: 0 (0%) n (%)
  Musculoskeletal and Connective Tissue Disorders: 0 (0%) n (%)
  Nausea: 0 (0%) n (%)
  Nervous System Disorders: 1 (4%) n (%)
  Paraesthesia oral: 0 (0%) n (%)
  Sensation of foreign body: 0 (0%) n (%)
  Sensation of heaviness: 0 (0%) n (%)
  Swollen tongue: 0 (0%) n (%)
  Vomiting: 0 (0%) n (%)
[3]; by treatment period, 24 subjects dosed
  Subjects with AEs, n (%): 3 (13%) n (%)
[3]; in vivo
  Infections and Infestations: 0 (0%) n (%)
  Viral Infections: 0 (0%) n (%)
[3]; single doses of 22.5 mg, alone or in the presence of steady-state paroxetine (20 mg daily), healthy subjects
  Safety and tolerability: safe and generally well tolerated

## COc1cc2c(cc1O)[C@H]1C[C@H](O)[C@H](CC(C)C)CN1CC2 [10-O-desmethyl β-HTBZ]
[1]; in vivo
  Quantifiability of plasma concentrations: appeared transiently in some subjects

## COc1cc2c(cc1O)CCN1C[C@@H](CC(C)C)[C@H](O)C[C@H]21 [9-O-desmethyl α-HTBZ]
[1]; in vivo
  Cmax: 1.4 (18) ng/mL
  AUC0−t lower by a factor in presence of paroxetine: 0.3
  Cmax lower by a factor in presence of paroxetine: 0.4
[1]; in vivo, im
  AUC0-t: 13.8 (65) ng × h/mL
  Cmax: 1.2 (45) ng/mL
  Tmax: 5.5 (3.5–12.0) h
[1]; in vivo, po, 22.5 mg
  Cmax: 1.3 (28) ng/mL

## COc1cc2c(cc1O)CCN1C[C@@H](CC(C)C)[C@@H](O)C[C@H]21 [9-O-desmethyl β-HTBZ]
[1]; in vivo
  Cmax: 4.5 (20) ng/mL
  AUC0−t lower by a factor in presence of paroxetine: 0.7
  Cmax lower by a factor in presence of paroxetine: 0.4
[1]; in vivo, im
  AUC0-t: 105 (33) ng × h/mL
  Cmax: 4.2 (45) ng/mL
  Tmax: 7.0 (4.0–24.0) h
  t1/2: 16.8 (13) (n = 7) h
[1]; in vivo, po, 22.5 mg
  Cmax: 4.4 (29) ng/mL

## Fc1ccc([C@@H]2CCNC[C@H]2COc2ccc3c(c2)OCO3)cc1 [Paroxetine, reference compound]
[1]; paroxetine 20 mg oral daily on days 4–12
  Steady-state exposure (mean trough plasma concentrations, visual inspection): achieved on day 10
[3]; [7]
  Back pain: 1 (4%) n (%)
  Chest discomfort: 1 (4%) n (%)
  Decreased appetite: 3 (13%) n (%)
  Dizziness: 1 (4%) n (%)
  Feeling abnormal: 1 (4%) n (%)
  Feeling hot: 1 (4%) n (%)
  Gastrointestinal Disorders: 5 (21%) n (%)
  General Disorders and Administration Site Conditions: 5 (21%) n (%)
  Gingival pain: 1 (4%) n (%)
  Headache: 5 (21%) n (%)
  Hypoaethesia oral: 1 (4%) n (%)
  Infections and Infestations: 1 (4%) n (%)
  Local swelling: 1 (4%) n (%)
  Metabolism and Nutritional disorders: 3 (13%) n (%)
  Muscle tightness: 1 (4%) n (%)
  Nervous System Disorders: 7 (29%) n (%)
  Paraesthesia oral: 1 (4%) n (%)
  Sensation of foreign body: 1 (4%) n (%)
  Sensation of heaviness: 0 (0%) n (%)
  Viral Infections: 1 (4%) n (%)
[3]; most common AE, reported 8 times by 7 subjects overall
  Headache, subjects reporting: 5 subjects

## COc1cc2c(cc1OC)[C@@H]1C[C@H](O)[C@@H](CC(C)C)CN1CC2 [α-HTBZ]
[1]; All subjects (n = 23)
  % Ratio of LS means (90% CI) (day 11)/(day 1), AUC0−t: 163.3 (148.3–179.8) %
  % Ratio of LS means (90% CI) (day 11)/(day 1), AUC0−∞: 169.8 (153.8–187.5) %
  % Ratio of LS means (90% CI) (day 11)/(day 1), Cmax: 106.3 (90.0–125.4) %
[1]; [4]
  % Ratio of LS means (90% CI) (day 11)/(day 1), AUC0−t: 181.6 (162.4–302.0) %
  % Ratio of LS means (90% CI) (day 11)/(day 1), AUC0−∞: 185.0 (165.8–206.4) %
  % Ratio of LS means (90% CI) (day 11)/(day 1), Cmax: 119.9 (108.1–132.9) %
[1]; [5]
  % Ratio of LS means (90% CI) (day 11)/(day 1), AUC0−t: 192.2 (162.9–226.8) %
  % Ratio of LS means (90% CI) (day 11)/(day 1), AUC0−∞: 193.6 (164.4–228.0) %
  % Ratio of LS means (90% CI) (day 11)/(day 1), Cmax: 127.8 (111.8–146.1) %
[1]
  Increase of half-life (t1/2) in presence of paroxetine: 1.5 fold
  Increase of AUC0–∞ in presence of paroxetine: 1.8 fold
  Increase of Cmax in presence of paroxetine: 1.2 fold
[1]; in vivo
  Cmax: 35.8 (21) ng/mL
[1]; in vivo, im
  AUC0–∞: 546 (22) ng × h/mL
  Cmax: 40.5 (22) ng/mL
  Tmax: 4.0 (2.0–7.0) h
  t1/2: 13.0 (23) h
[1]; in vivo, po, 22.5 mg
  Cmax: 37.4 (22) ng/mL
[2]
  Increase in exposure with paroxetine: threefold
[2]; [6]
  Increase of Cmax with paroxetine: 1.3 fold
